Measured values from US11109593B2, “Isoxazolin-5-one derivative and herbicide containing same as active ingredient” (HOKKO CHEMICAL INDUSTRY CO., LTD., priority 2017, dated 2021).

Tested on: Echinochloa crus-galli
Assay: Test Example 1: herbicidal effect test by treatment of rice paddy soil (immediately after seeding)
Type: in vivo
Conditions: 120 g/10a active ingredient, dry weight vs untreated area, 14 days after treatment
Outline: (§1)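 Applied at 120 g a.i./10 ares as diluted emulsion dropped into flooded (~3 cm) paddy soil pots right after sowing seeds 0–1 cm deep; greenhouse, two replicates. At day 14, dry weight of treated versus untreated plants gives % herbicidal rate.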

Q: How did the “Herbicidal rate (%) Echinochloa crus-galli” value turn out when Cc1c(Cc2cc(F)ccc2N(S(=O)(=O)C(F)(F)F)S(=O)(=O)C(F)(F)F)c(=O)on1CC(C)C [Compound 1-29] was run?
A: 100%

Q: For CCOC(=O)N(c1ccccc1Cc1c(C)n(C(C)CC)oc1=O)S(=O)(=O)C(F)(F)F (centres unmarked) [Compound 1-605], which “Herbicidal rate (%) Echinochloa crus-galli” value is on record?
A: 90%

Tested on: Scirpus juncoides
Assay: as above
Type: in vivo
Conditions: 120 g/10a active ingredient, dry weight vs untreated area, 14 days after treatment
Outline: as §1

Q: With Cc1c(Cc2cc(F)ccc2N(S(=O)(=O)C(F)(F)F)S(=O)(=O)C(F)(F)F)c(=O)on1CC(C)C [Compound 1-29] as the compound, how does the “Herbicidal rate (%) Scirpus juncoides” value read?
A: 90%

Q: With CCOC(=O)N(c1ccccc1Cc1c(C)n(C(C)CC)oc1=O)S(=O)(=O)C(F)(F)F (centres unmarked) [Compound 1-605] as the compound, how does the “Herbicidal rate (%) Scirpus juncoides” value read?
A: 90%

Tested on: broad leaf weeds (Lindernia pyxidaria and Monochoria vaginalis)
Assay: as above
Type: in vivo
Conditions: Lindernia pyxidaria, 120 g/10a active ingredient, dry weight vs untreated area, 14 days after treatment
Outline: as §1

Q: How did the “Herbicidal rate (%) Lindernia pyxidaria” value turn out when Cc1c(Cc2cc(F)ccc2N(S(=O)(=O)C(F)(F)F)S(=O)(=O)C(F)(F)F)c(=O)on1CC(C)C [Compound 1-29] was run?
A: 90%

Q: For CCOC(=O)N(c1ccccc1Cc1c(C)n(C(C)CC)oc1=O)S(=O)(=O)C(F)(F)F (centres unmarked) [Compound 1-605], which “Herbicidal rate (%) Lindernia pyxidaria” value is on record?
A: 90%

Same assay, conditions: Monochoria vaginalis, 120 g/10a active ingredient, dry weight vs untreated area, 14 days after treatment

Q: With Cc1c(Cc2cc(F)ccc2N(S(=O)(=O)C(F)(F)F)S(=O)(=O)C(F)(F)F)c(=O)on1CC(C)C [Compound 1-29] as the compound, how does the “Herbicidal rate (%) Monochoria vaginalis” value read?
A: 90%

Q: CCOC(=O)N(c1ccccc1Cc1c(C)n(C(C)CC)oc1=O)S(=O)(=O)C(F)(F)F (centres unmarked) [Compound 1-605] was tested. Which “Herbicidal rate (%) Monochoria vaginalis” value did it give?
A: 90%

Tested on: Echinochloa crus-galli
Assay: Test Example 2: herbicidal effect test by treatment during growing period in paddy rice cultivation (seven days after seeding)
Type: in vivo
Conditions: 120 g/10a active ingredient, assessed 14 days after treatment, dry weight vs untreated area
Outline: (§2)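 Post-emergence paddy water application: compounds were formulated as emulsions, diluted and dropped into flooded pots seven days after sowing at a rate equivalent to 120 g per 10 ares. Efficacy was taken as dry-weight reduction relative to untreated controls after 14 days.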

Q: For Cc1c(Cc2cc(F)ccc2N(S(=O)(=O)C(F)(F)F)S(=O)(=O)C(F)(F)F)c(=O)on1CC(C)C [Compound 1-29], which “Herbicidal rate (%) Echinochloa crus-galli” value is on record?
A: 100%

Q: With CCOC(=O)N(c1ccccc1Cc1c(C)n(C(C)CC)oc1=O)S(=O)(=O)C(F)(F)F (centres unmarked) [Compound 1-605] as the compound, how does the “Herbicidal rate (%) Echinochloa crus-galli” value read?
A: 90%

Tested on: Scirpus juncoides
Assay: as above
Type: in vivo
Conditions: 120 g/10a active ingredient, assessed 14 days after treatment, dry weight vs untreated area
Outline: as §2

Q: Which “Herbicidal rate (%) Scirpus juncoides” value does the source give for Cc1c(Cc2cc(F)ccc2N(S(=O)(=O)C(F)(F)F)S(=O)(=O)C(F)(F)F)c(=O)on1CC(C)C [Compound 1-29] here?
A: 90%

Q: Which “Herbicidal rate (%) Scirpus juncoides” value does the source give for CCOC(=O)N(c1ccccc1Cc1c(C)n(C(C)CC)oc1=O)S(=O)(=O)C(F)(F)F (centres unmarked) [Compound 1-605] here?
A: 90%

Tested on: broad leaf weeds (Lindernia pyxidaria and Monochoria vaginalis)
Assay: as above
Type: in vivo
Conditions: Lindernia pyxidaria, 120 g/10a active ingredient, assessed 14 days after treatment, dry weight vs untreated area
Outline: as §2

Q: Which “Herbicidal rate (%) Lindernia pyxidaria” value does the source give for Cc1c(Cc2cc(F)ccc2N(S(=O)(=O)C(F)(F)F)S(=O)(=O)C(F)(F)F)c(=O)on1CC(C)C [Compound 1-29] here?
A: 80%

Q: CCOC(=O)N(c1ccccc1Cc1c(C)n(C(C)CC)oc1=O)S(=O)(=O)C(F)(F)F (centres unmarked) [Compound 1-605] was tested. Which “Herbicidal rate (%) Lindernia pyxidaria” value did it give?
A: 90%

Same assay, conditions: Monochoria vaginalis, 120 g/10a active ingredient, assessed 14 days after treatment, dry weight vs untreated area

Q: Cc1c(Cc2cc(F)ccc2N(S(=O)(=O)C(F)(F)F)S(=O)(=O)C(F)(F)F)c(=O)on1CC(C)C [Compound 1-29] was tested. Which “Herbicidal rate (%) Monochoria vaginalis” value did it give?
A: 90%

Q: With CCOC(=O)N(c1ccccc1Cc1c(C)n(C(C)CC)oc1=O)S(=O)(=O)C(F)(F)F (centres unmarked) [Compound 1-605] as the compound, how does the “Herbicidal rate (%) Monochoria vaginalis” value read?
A: 90%

Tested on: Amaranthus viridis
Assay: Test Example 3: herbicidal effect test by treatment of dry field farming soil (one day after seeding)
Type: in vivo
Conditions: 120 g/10a active ingredient, evaluated 14 days after treatment
Outline: (§3)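 Dry-field alluvium pots; weed seeds incorporated in top 1 cm; soil spray of diluted emulsion 1 d after seeding, 120 g a.i./10 a in 100 L/10 a. Readout: % reduction of dry weight vs untreated, day 14, duplicates.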

Q: How did the “herbicidal rate, Amaranthus viridis” value turn out when Cc1c(Cc2cc(F)ccc2N(S(=O)(=O)C(F)(F)F)S(=O)(=O)C(F)(F)F)c(=O)on1CC(C)C [Compound 1-29] was run?
A: 40%

Q: CCOC(=O)N(c1ccccc1Cc1c(C)n(C(C)CC)oc1=O)S(=O)(=O)C(F)(F)F (centres unmarked) [Compound 1-605] was tested. Which “herbicidal rate, Amaranthus viridis” value did it give?
A: 90%

Tested on: Chenopodium album
Assay: as above
Type: in vivo
Conditions: 120 g/10a active ingredient, evaluated 14 days after treatment
Outline: as §3

Q: How did the “herbicidal rate, Chenopodium album” value turn out when Cc1c(Cc2cc(F)ccc2N(S(=O)(=O)C(F)(F)F)S(=O)(=O)C(F)(F)F)c(=O)on1CC(C)C [Compound 1-29] was run?
A: 40%

Q: How did the “herbicidal rate, Chenopodium album” value turn out when CCOC(=O)N(c1ccccc1Cc1c(C)n(C(C)CC)oc1=O)S(=O)(=O)C(F)(F)F (centres unmarked) [Compound 1-605] was run?
A: 90%

Tested on: Echinochloa crus-galli
Assay: as above
Type: in vivo
Conditions: 120 g/10a active ingredient, evaluated 14 days after treatment
Outline: as §3

Q: For Cc1c(Cc2cc(F)ccc2N(S(=O)(=O)C(F)(F)F)S(=O)(=O)C(F)(F)F)c(=O)on1CC(C)C [Compound 1-29], which “herbicidal rate, Echinochloa crus-galli” value is on record?
A: 70%

Q: How did the “herbicidal rate, Echinochloa crus-galli” value turn out when CCOC(=O)N(c1ccccc1Cc1c(C)n(C(C)CC)oc1=O)S(=O)(=O)C(F)(F)F (centres unmarked) [Compound 1-605] was run?
A: 90%

Tested on: southern crabgrass
Assay: as above
Type: in vivo
Conditions: 120 g/10a active ingredient, evaluated 14 days after treatment
Outline: as §3

Q: How did the “herbicidal rate, southern crabgrass” value turn out when Cc1c(Cc2cc(F)ccc2N(S(=O)(=O)C(F)(F)F)S(=O)(=O)C(F)(F)F)c(=O)on1CC(C)C [Compound 1-29] was run?
A: 70%

Q: How did the “herbicidal rate, southern crabgrass” value turn out when CCOC(=O)N(c1ccccc1Cc1c(C)n(C(C)CC)oc1=O)S(=O)(=O)C(F)(F)F (centres unmarked) [Compound 1-605] was run?
A: 90%

Tested on: Amaranthus viridis
Assay: Test Example 4: herbicidal effect test by treatment of leave and stem in dry field farming (seven days after seeding)
Type: in vivo
Conditions: 120 g/10a active ingredient; emulsion sprayed seven days after seeding; evaluated 14 days after treatment
Outline: (§4)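 Duplicate pots were scored 14 days post-spray by dry weight, herbicidal rate = {1 − treated/untreated average dry weight} × 100. The water-diluted emulsion, equivalent to 120 g active ingredient per 10 ares in 100 L, was applied seven days after sowing 20 seeds each into the upper 1 cm of alluvial soil.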

Q: For Cc1c(Cc2cc(F)ccc2N(S(=O)(=O)C(F)(F)F)S(=O)(=O)C(F)(F)F)c(=O)on1CC(C)C [Compound 1-29], which “herbicidal effect (herbicidal rate), Amaranthus viridis” value is on record?
A: 60%

Q: With CCOC(=O)N(c1ccccc1Cc1c(C)n(C(C)CC)oc1=O)S(=O)(=O)C(F)(F)F (centres unmarked) [Compound 1-605] as the compound, how does the “herbicidal effect (herbicidal rate), Amaranthus viridis” value read?
A: 40%

Tested on: Chenopodium album
Assay: as above
Type: in vivo
Conditions: 120 g/10a active ingredient; emulsion sprayed seven days after seeding; evaluated 14 days after treatment
Outline: as §4

Q: How did the “herbicidal effect (herbicidal rate), Chenopodium album” value turn out when Cc1c(Cc2cc(F)ccc2N(S(=O)(=O)C(F)(F)F)S(=O)(=O)C(F)(F)F)c(=O)on1CC(C)C [Compound 1-29] was run?
A: 0%

Q: CCOC(=O)N(c1ccccc1Cc1c(C)n(C(C)CC)oc1=O)S(=O)(=O)C(F)(F)F (centres unmarked) [Compound 1-605] was tested. Which “herbicidal effect (herbicidal rate), Chenopodium album” value did it give?
A: 40%

Tested on: Echinochloa crus-galli
Assay: as above
Type: in vivo
Conditions: 120 g/10a active ingredient; emulsion sprayed seven days after seeding; evaluated 14 days after treatment
Outline: as §4

Q: Which “herbicidal effect (herbicidal rate), Echinochloa crus-galli” value does the source give for Cc1c(Cc2cc(F)ccc2N(S(=O)(=O)C(F)(F)F)S(=O)(=O)C(F)(F)F)c(=O)on1CC(C)C [Compound 1-29] here?
A: 60%

Q: Which “herbicidal effect (herbicidal rate), Echinochloa crus-galli” value does the source give for CCOC(=O)N(c1ccccc1Cc1c(C)n(C(C)CC)oc1=O)S(=O)(=O)C(F)(F)F (centres unmarked) [Compound 1-605] here?
A: 90%

Tested on: southern crabgrass
Assay: as above
Type: in vivo
Conditions: 120 g/10a active ingredient; emulsion sprayed seven days after seeding; evaluated 14 days after treatment
Outline: as §4

Q: With Cc1c(Cc2cc(F)ccc2N(S(=O)(=O)C(F)(F)F)S(=O)(=O)C(F)(F)F)c(=O)on1CC(C)C [Compound 1-29] as the compound, how does the “herbicidal effect (herbicidal rate), southern crabgrass” value read?
A: 40%

Q: With CCOC(=O)N(c1ccccc1Cc1c(C)n(C(C)CC)oc1=O)S(=O)(=O)C(F)(F)F (centres unmarked) [Compound 1-605] as the compound, how does the “herbicidal effect (herbicidal rate), southern crabgrass” value read?
A: 90%
